Values of other authors, collected in patent publication US20190382321A1, “ACID-RESISTANT UREASE INHIBITOR ADDUCT-[…] COMPOSITIONS” (Koch Agronomic Services, LLC, priority 2017, published 2019).

Settings: blend of NBPT-containing urea and one or more acidic fertilizers

## CCCCNP(N)(N)=S [NBPT, N-(n-butyl) thiophosphoric triamide]
  time to almost complete decomposition after blending: 1-2 weeks
